From ChEMBL document CHEMBL1140104, “Chlorogenic acid derivatives with alkyl chains of different lengths and orientations: potent alpha-glucosidase inhibitors” (J Med Chem, 2008)
Structures can show the parent of a compound that is named as a salt.

Key:
[1] = Inhibition of Bacillus stearothermophilus alpha-glucosidase; parameters: species or system Geobacillus stearothermophilus
[2] = Inhibition of Saccharomyces cerevisiae alpha-glucosidase
[3] = Stability in artificial gastric juice at 10 mM after 48 hrs; type: physicochemical; settings: simulated gi fluid, 10000 µM
[4] = Stability in artificial intestinal juice at 10 mM after 12 hrs; type: physicochemical; settings: simulated gi fluid, 10000 µM

| Structure (SMILES) | IC50 [1] [µM] | IC50 [2] [µM] | Stability [3] | Stability [4] |
| --- | --- | --- | --- | --- |
| CCCCCC1(CCCCC)OC(=O)[C@@]2(C[C@@H](O)[C@@H](O)[C@H](OC(=O)/C=C/c3ccc(O)c(O)c3)C2)O1 | 14.2 | 3.6 |  |  |
| CCC1(CC)O[C@H]2[C@H](OC(=O)/C=C/c3ccc(O)c(O)c3)C[C@]3(C[C@H]2O1)OC(CC)(CC)OC3=O | 44.9 | 26.5 |  |  |
| CCCCC1(CCCC)O[C@H]2[C@H](OC(=O)/C=C/c3ccc(O)c(O)c3)C[C@]3(C[C@H]2O1)OC(CCCC)(CCCC)OC3=O | 0.8 | 0.3 |  |  |
| CCCCC1(CCCC)OC(=O)[C@@]2(C[C@@H](O)[C@@H](O)[C@H](OC(=O)/C=C/c3ccc(O)c(O)c3)C2)O1 | 14.4 | 3.4 |  |  |
| CC1(C)OC2Cc3c(O)cc(O)cc3O[C@@H]2c2cc(O)c(O)cc21 (some centres undefined) | 29.6 | 18.5 |  |  |
| CCCC1(CCC)O[C@H]2[C@H](OC(=O)/C=C/c3ccc(O)c(O)c3)C[C@]3(C[C@H]2O1)OC(CCC)(CCC)OC3=O | 5.5 | 3.3 |  |  |
| O=C(/C=C/c1ccc(O)c(O)c1)O[C@@H]1C[C@](O)(C(=O)O)C[C@@H](O)[C@H]1O [CHLOROGENIC ACID] | 2820 | > 2820 |  |  |
| CCCCCCCC1(CCCCCCC)O[C@H]2[C@H](OC(=O)/C=C/c3ccc(O)c(O)c3)C[C@]3(C[C@H]2O1)OC(CCCCCCC)(CCCCCCC)OC3=O | 0.9 | 0.4 |  |  |
| CCCCCCCCC1(CCCCCCCC)O[C@H]2[C@H](OC(=O)/C=C/c3ccc(O)c(O)c3)C[C@]3(C[C@H]2O1)OC(CCCCCCCC)(CCCCCCCC)OC3=O | 0.9 | 0.5 |  |  |
| CC1(C)O[C@H]2[C@H](OC(=O)/C=C/c3ccc(O)c(O)c3)C[C@]3(C[C@H]2O1)OC(C)(C)OC3=O | 154 | 391 |  |  |
| CCC1(CC)OC(=O)[C@@]2(C[C@@H](O)[C@@H](O)[C@H](OC(=O)/C=C/c3ccc(O)c(O)c3)C2)O1 | 128 | 71.1 |  |  |
| OC[C@H]1NC[C@H](O)[C@@H](O)[C@@H]1O [DUVOGLUSTAT HYDROCHLORIDE] | 2.4 | 1.8 |  |  |
| CC1(C)OC(=O)[C@@]2(C[C@@H](O)[C@@H](O)[C@H](OC(=O)/C=C/c3ccc(O)c(O)c3)C2)O1 | 2540 | 114 |  |  |
| CCCC1(CCC)OC(=O)[C@@]2(C[C@@H](O)[C@@H](O)[C@H](OC(=O)/C=C/c3ccc(O)c(O)c3)C2)O1 | 62.2 | 19.4 |  |  |
| C[C@H]1O[C@H](O[C@H]2[C@H](O)[C@@H](O)[C@@H](O[C@H]3[C@H](O)[C@@H](O)C(O)O[C@@H]3CO)O[C@@H]2CO)[C@H](O)[C@@H](O)[C@@H]1N[C@H]1C=C(CO)[C@@H](O)[C@H](O)[C@H]1O (some centres undefined) [ACARBOSE] | 0.1 | 0.1 |  |  |

Other lines, results leading:

| IC50 [1] [µM] | IC50 [2] [µM] | Stability [3] | Stability [4] | Structure (SMILES) |
| --- | --- | --- | --- | --- |
| 0.7 | 0.3 | Stable | Stable | CCCCCCCC[C@@H]1O[C@H]2[C@H](OC(=O)/C=C/c3ccc(O)c(O)c3)C[C@]3(C[C@H]2O1)O[C@@H](CCCCCCCC)OC3=O |
| 12.5 | 3.6 |  |  | CCCCCCCC[C@H]1OC(=O)[C@@]2(C[C@@H](O)[C@@H](O)[C@H](OC(=O)/C=C/c3ccc(O)c(O)c3)C2)O1 |
| 10.9 | 3.3 |  |  | CCCCCCCC[C@@H]1OC(=O)[C@@]2(C[C@@H](O)[C@@H](O)[C@H](OC(=O)/C=C/c3ccc(O)c(O)c3)C2)O1 |
| 1.1 | 0.8 |  |  | CCCCCC1(CCCCC)O[C@H]2[C@H](OC(=O)/C=C/c3ccc(O)c(O)c3)C[C@]3(C[C@H]2O1)OC(CCCCC)(CCCCC)OC3=O |
| 0.8 | 0.5 |  |  | CCCCCCC1(CCCCCC)O[C@H]2[C@H](OC(=O)/C=C/c3ccc(O)c(O)c3)C[C@]3(C[C@H]2O1)OC(CCCCCC)(CCCCCC)OC3=O |
| 5.1 | 3 |  |  | CCCCCCCCC1(CCCCCCCC)OC(=O)[C@@]2(C[C@@H](O)[C@@H](O)[C@H](OC(=O)/C=C/c3ccc(O)c(O)c3)C2)O1 |
| 3.9 | 3.4 |  |  | CCCCCCC1(CCCCCC)OC(=O)[C@@]2(C[C@@H](O)[C@@H](O)[C@H](OC(=O)/C=C/c3ccc(O)c(O)c3)C2)O1 |
| 2 | 1 |  |  | CCCCCCCC[C@@H]1OC(=O)[C@]2(C[C@@H](OC(=O)/C=C/c3ccc(O)c(O)c3)[C@@H]3O[C@H](CCCCCCCC)O[C@@H]3C2)O1 |
| 1.8 | 0.8 |  |  | CCCCCCCC[C@@H]1O[C@H]2[C@H](OC(=O)/C=C/c3ccc(O)c(O)c3)C[C@]3(C[C@H]2O1)O[C@H](CCCCCCCC)OC3=O |
| 3.6 | 4.3 |  |  | CCCCCCCC1(CCCCCCC)OC(=O)[C@@]2(C[C@@H](O)[C@@H](O)[C@H](OC(=O)/C=C/c3ccc(O)c(O)c3)C2)O1 |
| 0.8 | 0.3 |  |  | CCCCCCCC[C@H]1O[C@H]2[C@H](OC(=O)/C=C/c3ccc(O)c(O)c3)C[C@]3(C[C@H]2O1)O[C@@H](CCCCCCCC)OC3=O |
